Patent US10226044B2, “Agricultural and horticultural composition and method for cultivating plant” (AJINOMOTO CO., INC., priority 2014, dated 2019)

Key:
[1] = test system: tomato (Momotaro Fight); assay: Sprinkling of various compounds on tomato (Momotaro): first appearance, coloring and number of fruit; format: in vivo; details: per four root clumps; for number of fruit turning color to orange or red: 107th day after sowing, water: 0; for number of harvested fruits: after cultivation for 3 months after sowing, water: 8
Procedure: Three seeds of tomato (Momotaro Fight) were shown in compost contained in a slit pot, and cultivated in the same manner as described in Example 1, provided that the cultivation was performed in a greenhouse (daytime temperature was 25° C. (6:00 to 20:00), and night temperature was 15° C. (20:00 to 6:00)). The compost and application of fertilizer were the same or performed in the same manner as those described in Example 1. After 3 weeks, one root clump was left, and the others were thinned out. When a flower cluster of the first tier appeared, a support was put up, and after a flower cluster of the second tier appeared, pinching was performed (pinching of terminal bud). After the plants of four root clumps uniformly grew, and flower buds began to appear, water (Con.), 10 mM L-isoleucine aqueous solution (Ile), 10 mM monosodium glutamate aqueous solution (GluNa), 5 mM urea aqueous solution (Urea), or 10 mM phenylalanine aqueous solution (Phe) was sprinkled on the whole plants every two weeks. The sprinkled volume was adjusted in accordance with the growth of the plants, and it was 15 to 30 mL per one root clump. The concentration of urea was 5 mM so that nitrogen amount provided by it was the same as that provided by each of the amino acids. Then, the first appearance of fruit, ripening of fruit, and number of fruit produced were investigated for each root clump.

[2] = test system: VR callus derived from European grape; assay: Anthocyanin content of grape calluses treated with amino acids; format: cell-based, Vitis vinifera L.
Procedure: A cell line (VR, management number RPC00003) derived from European grape (Vitis vinifera L.) and stored in the Institute of Physical and Chemical Research, BioResource Center was subcultured on the MS agar medium. The subcultured VR callus was transferred to the MS agar medium containing a 5 mM solution of a different amino acid, and cultured. For the positive control, abscisic acid (ABA), for which coloring-promoting effect is known, was used at 100 μM (Jeong et al., Plant Science, 167:247-252, 2004). On the 5th day after the transfer, the callus was lyophilized and ground, and anthocyanin was extracted from it by using a 1% HCl/MeOH solution. Absorbance of the extract was measured at 530 nm, and the content of anthocyanin was measured by using cyanidine 3-glucoside as a standard substance.
(2) In the same manner as described above, anthocyanin content of grape calluses treated with isoleucine and proline, respectively, were measured.

[3] = test system: cherry tomato (Suncherry Pure); assay: Amino acid analysis of tomato fruit obtained with sprinkling of Ile or Pro; format: in vivo; details: fruit juice; plants sprinkled with 10 mM solution once a week; average of 8 fruit
Procedure: (§1) After the plants of four root clumps uniformly grew, and flower buds began to appear, water (Con.), 10 mM L-isoleucine aqueous solution (Ile), or 10 mM proline aqueous solution (Pro) was sprinkled on the whole plants once a week. The sprinkled volume was adjusted in accordance with the growth of the plants, and it was 15 to 30 mL per one root clump.
Mature fruit were taken from each of the cherry tomato plants sprinkled with water, Ile, or Pro, and the amino acid content was analyzed for each. Two pieces of fruit were taken from the flower cluster of the second tier of one root clump, that is, a total of 8 pieces of fruit were taken for each test group. Fruit juice was pressed out of each piece of fruit, and the fruit juice was diluted 10 times with 0.02 N HCl, and subjected to filter filtration. The amino acids contained in the obtained filtrate were measured. Measurement of the amino acids was performed with High Speed Amino Acid Analyzer L-8800 (Hitachi) according to the manual of this instrument. The amounts of the amino acids (μmol/mL) in each fruit juice filtrate were calculated, and the averages for eight pieces of fruit were used as the amino acid amounts of the corresponding test group.

[4] = test system: cherry tomato (Suncherry Pure); assay: Sugar content and acidity analysis of tomato fruit juice; format: in vivo; details: 10 mM sprinkled once a week
Procedure: as §1
Mature tomato fruit were taken from cherry tomato plants of each experimental group in the same manner as described in iii) above, and fruit juice was pressed out from each fruit. Glucose content, fructose content, and acidity of each fruit juice extract were analyzed. Analysis of glucose and fructose was performed for a 20-fold diluted solution of fruit juice by using a food analysis reagent kit, F-Kit (Saccharose (Sucrose)/D-Glucose/D-Fructose Kit (Roche)) and DU800 Spectrophotometer (Beckman Coulter) according to the manuals of the kit and instrument. Acidity analysis was performed by using a pocket acidity meter (PAL-AC1, ATAGO).

[5] = test system: cherry tomato (Suncherry Pure); format: in vivo; details: 10 mM sprinkled once a week
Procedure: Three seeds of cherry tomato (Suncherry Pure, Tokita Seed) were shown in compost contained in a slit pot, and cultivated in the same manner as described in Example 1, provided that the cultivation was performed in a greenhouse as in Example 2. The compost and application of fertilizer were the same or performed in the same manner as those described in Example 1. One month after the sowing, each seedling was permanently planted in a 9.0-cm long pot (top diameter 9 cm, height 20 cm, bottom diameter 6.4 cm), and cultivated until harvest. As for application of fertilizer, a 200-fold diluted solution of Vegetable Life A (Otsuka Chemical) was additionally applied as a fertilizer by irrigation in a volume of 100 mL per one root clump (pot) every two days from one month after the sowing to the harvest. After the plants of four root clumps uniformly grew, and flower buds began to appear, water (Con.), 10 mM L-isoleucine aqueous solution (Ile), or 10 mM proline aqueous solution (Pro) was sprinkled on the whole plants once a week. The sprinkled volume was adjusted in accordance with the growth of the plants, and it was 15 to 30 mL per one root clump. Then, ripening of fruit, number of fruit, amino acid content of fruit juice, sugar content and acidity of fruit juice, and antioxidant capacity of fruit juice were investigated for each root clump.

N[C@@H](Cc1ccccc1)C(=O)O [Phe, phenylalanine]
number of fruit turning color to orange or red [1]: 0 | number of harvested fruits [1]: 8

N[C@@H](CCC(=O)O)C(=O)[O-].[Na+] [GluNa, monosodium glutamate]
number of fruit turning color to orange or red [1]: 1 | number of harvested fruits [1]: 14

NC(N)=O [Urea, urea]
number of fruit turning color to orange or red [1]: 1 | number of harvested fruits [1]: 10

N[C@@H](Cc1ccc(O)cc1)C(=O)O [Try, reference compound]
Relative anthocyanin content ([2]; 5 mM amino acid in MS agar medium, 5th day after transfer, positive control 100 μM abscisic acid (ABA) taken as 100%): 0%

O=C(O)[C@@H]1CCCN1 [Pro, proline, reference compound]
Ala in fruit juice [3]: 3.79 µmol/mL | Arg in fruit juice [3]: 0.13 µmol/mL | Asn in fruit juice [3]: 0.63 µmol/mL | Asp in fruit juice [3]: 1.75 µmol/mL | Cys in fruit juice [3]: 0.08 µmol/mL | Gln in fruit juice [3]: 1.57 µmol/mL | Glu in fruit juice [3]: 7.76 µmol/mL | Gly in fruit juice [3]: 0.24 µmol/mL | His in fruit juice [3]: 0.17 µmol/mL | Ile in fruit juice [3]: 0.15 µmol/mL | Leu in fruit juice [3]: 0.29 µmol/mL | Lys in fruit juice [3]: 0.27 µmol/mL | Met in fruit juice [3]: 0.14 µmol/mL | Phe in fruit juice [3]: 0.38 µmol/mL | Pro in fruit juice [3]: 0.39 µmol/mL | Ser in fruit juice [3]: 0.61 µmol/mL | Thr in fruit juice [3]: 0.27 µmol/mL | Total amino acids in fruit juice [3]: 21.13 µmol/mL | Trp in fruit juice [3]: 0.072 µmol/mL | Tyr in fruit juice [3]: 0.185 µmol/mL | Val in fruit juice [3]: 0.18 µmol/mL | γ-ABA in fruit juice [3]: 4.46 µmol/mL | acidity of the fruit, comparison of groups [4]: slightly increased | glucose content and fructose content of the fruit, comparison of groups [4]: lowest | Acidity ([4]; fruit juice of mature fruit): 0.47% | Fructose ([4]; fruit juice of mature fruit): 12.2 g/L | Glucose ([4]; fruit juice of mature fruit): 12.3 g/L | final crop yield: number of fruit produced, larger as compared to water (Con.) [5]: 9% | number of tomatoes that had changed color [5]: larger in the order of the tomato plants sprinkled with Ile, Pro, and water (Con.) | change in color of the grape callus (anthocyanin content) ([2]; Ile of 1 mM or higher, Pro compared with Ile): weaker
